Values after ≈ are worked out from the molar mass of the structure shown. Where two headings read alike, the source gives them in different places. Numbered stars: 1 amine (or outer) side, 2 acyl side, 3 side chain; on linkers, the order of the positions; unused ones are H or OH. Bridge positions count the residues as written; N and C are the ends. Square brackets hold non-standard residues; d marks the D form. Peptide text beside a SMILES is read from it. X1 = C[C@@H](O)[C@@H](CS[*:1])N[*:2]; dGly(nOct) = CCCCCCCC[C@@H](N)C(=O)O; Hica(2S) = CC(C)C[C@H](O)C(=O)O; Dab = NCC[C@H](N)C(=O)O
Legend:
[1] = test system: P. aeruginosa ATCC 27853; experiment: microbe, parasite or virus in culture; format: cell-based; conditions: for MIC: resistance profile of strain P. aeruginosa ATCC 27853, Table 3
Protocol: (§1) The antibacterial activity of the polymyxin lipopeptides was measured at ISGlobal following the microdilution test to determine the Minimal Inhibitory Concentrations (MIC) in sterile 96-well polypropilene plates. The concentration range was 32 a […] in Iso-Sensitest broth (Oxoid, ThermoFisher). The results were carried out in triplicate and the highest MIC is the one shown. Bacterial strains were grown in blood agar plates at 37° C. for 17 h. Fresh colonies were used to prepare a McFarland 0.5 solution that was finally added to the plates at 1 to 100 dilution
(§2) Samples of sensitive and multi-drug resistant bacteria were: E. coli ATCC 25922 E. coli MB1410; K. pneumoniae MB674; P. aeruginosa ATCC 27853; P. aeruginosa 36A.

[2] = test system: E. coli MB1410; experiment: microbe, parasite or virus in culture; format: cell-based; conditions: for MIC: Escherichia coli
Protocol: as §1, §2

[3] = test system: E. coli ATCC 25922; experiment: microbe, parasite or virus in culture; format: cell-based
Protocol: as §1, §2

[4] = test system: P. aeruginosa 36A; experiment: microbe, parasite or virus in culture; format: cell-based; conditions: for MIC: resistance profile of strain P. aeruginosa 36A, Table 3
Protocol: as §1, §2

[5] = test system: Swiss CD-1 female mice; experiment: Nephrotoxicity study, histopathological scoring of kidney lesions; format: in vivo; design: key to Group Score (GS): mean of per-animal summed 0-4 lesion scores; higher = more nephrotoxic; key to Animal Score (AS), Partial AS: sum of 0-4 lesion parameter scores; higher = more nephrotoxic
Protocol: Swiss CD-1 female mice weighing approximately 20-24 g (JANVIER Labs) were used, housed in an individually ventilated cage system under specific pathogen-free conditions, and water and food supplied ad libitum. This study plan and the conduct of the study were subjected to review by the Scientific Park of Barcelona Ethical Review Process with the current study procedure Code CEEA (AR) 9377-P2. Mice were administered at a dose of 12 mg/Kg every 2 hours for a total of 6 administrations (total dose 72 mg/Kg), unless otherwise stated. After 20 h, animals were anesthesized with isoflurane, kidneys extracted and prepared for histopathological evaluation, and finally animales were sacrificed. Kidney lesions (tubule dilation, necrosis, tubule casts, cell vacuolization, cell desquamation, and cell swelling) were quantified by microscopical observation (see for instance, Roberts, ACS Infect. Dis., 2015, 1, 568). Each one of these parameters was scored with values from 0 to 4 for each animal, as a global result of observations in kidney. Partial scores have been added up to obtain a final score for each animal (Animal Score, AS). The mean of animal score has been obtained to define the Group Score (GS). The higher the score, the more nephrotoxic a compound is. The nephrotoxicity score has been determined as according to the following table of approximated values: […]

[6] = test system: K. pneumoniae MB674; format: cell-based; conditions: for MIC: resistance profile of strain K. pneumoniae MB674, Table 3
Protocol: as §1, §2

[7] = Table 6, sum of mouse scores, 12 mg/Kg every 2 hours × 6, subcutaneous, total 72 mg/Kg
[8] = Pseudomonas aeruginosa, ATCC27853, read-out: MIC
[9] = Escherichia coli, ATCC25922, resistance profile of strain E. coli ATCC 25922, Table 3, read-out: MIC
[10] = resistance profile of strain E. coli ATCC 25922, Table 3
[11] = Table 8, 12 mg/Kg every 2 hours × 6 sc, total 72 mg/Kg, 3 mice

Molecule: CCCCCCCC[C@@H](N)C(=O)N[C@H](C(=O)N[C@@H](CCN)C(=O)N[C@H]1CSSC[C@H]([C@@H](C)O)NC(=O)[C@H](CCN)NC(=O)[C@H](CCN)NC(=O)[C@H](CC(C)C)OC(=O)[C@@H](CC(C)C)NC(=O)[C@H](CCN)NC1=O)[C@@H](C)O [Example 8, DAdec-Thr-Dab-cyclo(S-S)[Cys-Dab-DLeu-OLe-Dab-Dab-Ttr]] (H-[dGly(nOct)]T[Dab]C[Dab][dL][Hica(2S)][Dab][Dab]; linker 4-C via X1)
- antibacterial activity (MIC) ([1]; ATCC 27853): 2 µg/mL
- antibacterial activity (MIC) ([2]; MB1410): 1 µg/mL
- antibacterial activity (MIC) ([3]; ATCC 25922): 2 µg/mL
- antibacterial activity (MIC) ([4]; 36A): 1 µg/mL
- Mice found dead ([5]; Table 6, 12 mg/Kg every 2 hours × 6, subcutaneous, total 72 mg/Kg): None
- Group Score (GS) ([5]; Table 6, mean of animal scores, 12 mg/Kg every 2 hours × 6, subcutaneous, total 72 mg/Kg): 0
- Cell desquamation, Partial AS [5, 7]: 0
- Cell vacuolization, Partial AS [5, 7]: 0
- Cloudy swelling, Partial AS [5, 7]: 0
- Tubular casts, Partial AS [5, 7]: 0
- Tubular dilation, Partial AS [5, 7]: 0
- Tubular necrosis, Partial AS [5, 7]: 0
- Animal Score (AS), Partial AS ([5]; Table 6, sum over all mice, 12 mg/Kg every 2 hours × 6, subcutaneous, total 72 mg/Kg): 0
- antibacterial activity (MIC) ([6]; MB674): 1 µg/mL

Molecule: CO/N=C(\C(=O)N[C@@H]1C(=O)N2C(C(=O)[O-])=C(C[N+]3(C)CCCC3)CS[C@H]12)c1csc(N)n1 [FEP, Cefepime]
- MIC [1, 8]: 1 µg/mL (≈ 2.08 µM)
- MIC [3, 9]: 0.06 µg/mL (≈ 0.125 µM)
- MIC ([4]; Pseudomonas aeruginosa, read-out: MIC): 8 µg/mL (≈ 16.6 µM)

Molecule: C[C@@H](O)[C@H]1C(=O)N2C(C(=O)O)=C(SCCN=CN)C[C@H]12 [IP, Imipenem]
- MIC [1, 8]: 2 µg/mL (≈ 6.68 µM)
- MIC ([2]; MB1410): 0.125 µg/mL (≈ 0.418 µM)
- MIC ([3]; Escherichia coli, ATCC25922): 0.125 µg/mL (≈ 0.418 µM)

Molecule: C[C@H]1COc2c(N3CCN(C)CC3)c(F)cc3c(=O)c(C(=O)O)cn1c23 [Lev, Levofloxacin]
- MIC [1, 8]: 1.5 µg/mL (≈ 4.15 µM)
- MIC [3, 9]: 0.094 µg/mL (≈ 0.26 µM)

Molecule: C[C@@H](O)[C@H]1C(=O)N2C(C(=O)O)=C(S[C@@H]3CN[C@H](C(=O)N(C)C)C3)[C@H](C)[C@H]12 [MP, Meropenem]
- MIC [1, 8]: 0.38 µg/mL (≈ 0.991 µM)
- MIC ([2]; resistance profile of strain E. coli MB1410, Table 3, read-out: MIC): 0.094 µg/mL (≈ 0.245 µM)
- MIC ([3]; Escherichia coli, ATCC25922): 0.125 µg/mL (≈ 0.326 µM)

Molecule: CN(C)c1cc(NC(=O)CNC(C)(C)C)c(O)c2c1C[C@H]1C[C@H]3[C@H](N(C)C)C(O)=C(C(N)=O)C(=O)[C@@]3(O)C(O)=C1C2=O [TG, Tigecicline]
- MIC [1]: 12 µg/mL (≈ 20.5 µM)
- MIC [3, 10]: 0.5 µg/mL (≈ 0.854 µM)
- MIC [4]: 12 µg/mL (≈ 20.5 µM)
- MIC [6]: 0.5 µg/mL (≈ 0.854 µM)

Molecule: Gentamicin [Gm]
- MIC [1]: 1.5 µg/mL
- MIC [3, 10]: 0.5 µg/mL
- MIC [6]: 2 µg/mL

Molecule: Nonanoyl-Dab-Thr-Dab-cyclo(S-S)[Cys-Dab-DPhe-Leu-Dab-Dab-Cys] [compound 1]
- AS, Partial AS [5, 11]: 12
- Cell vacuolization, Partial AS [5, 11]: 0
- Cloudy swelling, Partial AS [5, 11]: 6
- Group Score (GS) [5, 11]: 4
- Mice found dead [5, 11]: none
- Tubular casts, Partial AS [5, 11]: 0
- Tubular dilaion, Partial AS [5, 11]: 6
- Tubular necrosis, Partial AS [5, 11]: 0
- nephrotoxicity in mice, in words ([5]; nephrotoxicity tests carried out in mice, statement of the background): showed nephrotoxicity

Source: patent publication US20210253520A1, “POLYMYXIN-BASED COMPOUNDS USEFUL AS ANTIBACTERIAL AGENTS” (UNIVERSITAT DE BARCELONA, priority 2018, published 2021)
